Assay results from US20250360166A1, “Cisplatin particles and uses thereof” (CRITITECH, INC., priority 2021, published 2025).

Assays:
[1] = Particle size distribution by laser diffraction (Malvern Mastersizer 3000, Hydro MV); type: physicochemical; settings: dispersed in ethyl acetate
Protocol: Particle size analyses were conducted on a Malvern Mastersizer™ 3000 using the Hydro MV dispersion unit. A non-validated general PSD method/dispersant method was used to analyze the cisplatin samples. The sample preparation procedure performed was as follows: Weigh 10 to 20 mg of cisplatin into a 30-mL vial, add 20 mL of ethyl acetate. Disperse the sample by vortexing then sonicating the suspension in an ultrasonic bath for 1 minute. Then transfer the sample suspension to the Malvern Hydro MV dispersion unit to obtain obscuration between 5 and 15%.

[2] = Specific surface area by BET sorptometry; type: physicochemical
Source text: The BET specific surface area test procedure is a compendial method included in both the United States Pharmaceopeia and the European Pharmaceopeia.

[3] = Bulk density (10 mL graduated cylinder, modified USP <616> Method I); type: physicochemical; settings: not tapped
Protocol: As used herein, the bulk density of the cisplatin particles is the mass of the totality of particles in the composition divided by the total volume they occupy when poured into a graduated cylinder and not tapped. The total volume includes particle volume, inter-particle void volume, and internal pore volume.
Bulk density analyses were conducted using a 10 mL graduated cylinder due to low sample volume.

[4] = tested on: H69 tumor cells; test: SCP-Cisplatin pilot study, subcutaneous H69 tumor in NCr nu/nu mice, single intra-tumoral injection; type: in vivo
Protocol: 55 CR female NCr nu/nu mice 8-12 weeks of age at start date were injected subcutaneously in the flank with 1×10^7 H69 tumor cells in 50% Matrigel; cell injection volume was 0.1 mL/mouse. A pair match was performed when tumors reach an average size of 100-150 mm^3, after which treatment was initiated as detailed in Table 2.
Tumor cells implanted on Day 0 and treatments initiated on Day 18 (Mean TV=126 mm^3). There were 5 treatment groups (n=5/group); all receiving IT injections =25 uL; 27G needle. The IT vehicle group was administered ethanol/glycerin/water. Animals were sacrificed at humane endpoint of TV=2000 mm^3 or Study Day 51.

Row | SMILES | PSD-Master sizer Dv10 [1] [μm] | PSD-Master sizer Dv50 [1] [μm] | PSD-Master sizer Dv90 [1] [μm] | Surface Area [2] [m^2/g] | Bulk Density [3] [g/mL] | tumor volume of surviving animals on Day 51 ([4]; 25 μg/animal intra-tumoral qd × 1) | animals survived on Day 51 ([4]; 25 μg/animal intra-tumoral qd × 1, n=5, endpoint TV=2000 mm^3 or Day 51)
1 | N.N.[Cl][Pt][Cl] [Raw, Cisplatin] | 1.72 | 10.9 | 25.9 | 2.44 | 1.01 | – | –
2 | N.N.[Cl][Pt][Cl] [Cisplatin] | – | – | – | – | – | increasing tumor volume | 3 of 5
